This is an account of results in PubChem BioAssay AID1259407 (Chemical Carcinogenesis Research Information System (CCRIS), 2018).

Calls of active or inactive are those of the source. The rule behind the calls is not given here.

For the series, the system named is CCRIS mutagenicity, Ames/micronucleus/aberration tests. Put plainly: CCRIS mutagenicity studies.
Where [1] appears, read: Test System: AMES SALMONELLA TYPHIMURIUM, Strain/Indicator: TA98, Metabolic Activation: NONE, Method: PREINCUBATION
Where [2] appears, read: Test System: AMES SALMONELLA TYPHIMURIUM, Strain/Indicator: TA100, Metabolic Activation: NONE, Method: PREINCUBATION
Where [3] appears, read: Test System: MOUSE LYMPHOMA, Strain/Indicator: L5178Y (TK+/TK-), Metabolic Activation: NONE, Method: SUSPENSION/PLATE.

As for `O=[N+]([O-])c1ccc2oc3ccc([N+](=O)[O-])cc3c2c1`, the mutagenic call was “active; positive” (Test System: AMES SALMONELLA TYPHIMURIUM, Strain/Indicator: TA98(1,8-DNP6), Metabolic Activation: NONE, Method: PREINCUBATION); “active; positive” (Test System: AMES SALMONELLA TYPHIMURIUM, Strain/Indicator: TA98(1,8-DNP6), Metabolic Activation: NONE, Method: SUSPENSION); “active; positive” (Test System: AMES SALMONELLA TYPHIMURIUM, Strain/Indicator: TA98(1,8-DNP6), Metabolic Activation: RAT, LIVER, S-9, PCB (5%), Method: PREINCUBATION); “inactive; negative” (Test System: AMES SALMONELLA TYPHIMURIUM, Strain/Indicator: TA98(NR), Metabolic Activation: NONE, Method: PREINCUBATION); “inactive; negative” (Test System: AMES SALMONELLA TYPHIMURIUM, Strain/Indicator: TA98(NR), Metabolic Activation: NONE, Method: SUSPENSION); “active; positive” (Test System: AMES SALMONELLA TYPHIMURIUM, Strain/Indicator: TA98(NR), Metabolic Activation: RAT, LIVER, S-9 (10%), Method: PREINCUBATION). Also, the mutagenic call by setting is: (Test System: AMES SALMONELLA TYPHIMURIUM, Strain/Indicator: TA98(NR), Metabolic Activation: RAT, LIVER, S-9, 3-METHYLCHOLANTHRENE (10%), Method: PREINCUBATION) “active; positive”; (Test System: AMES SALMONELLA TYPHIMURIUM, Strain/Indicator: TA98(NR), Metabolic Activation: RAT, LIVER, S-9, BETA-NAPHTHOFLAVONE (10%), Method: PREINCUBATION) “active; positive”; (Test System: AMES SALMONELLA TYPHIMURIUM, Strain/Indicator: TA98(NR), Metabolic Activation: RAT, LIVER, S-9, PCB (5 OR 10%), Method: PREINCUBATION) “active; positive”; (Test System: AMES SALMONELLA TYPHIMURIUM, Strain/Indicator: TA98(NR), Metabolic Activation: RAT, LIVER, S-9, PHENOBARBITAL (10%), Method: PREINCUBATION) “active; positive”; under setting [1], “active; positive”; (Test System: AMES SALMONELLA TYPHIMURIUM, Strain/Indicator: TA98, Metabolic Activation: NONE, Method: SUSPENSION) “active; positive”. Further, the mutagenic call reads like this: (Test System: AMES SALMONELLA TYPHIMURIUM, Strain/Indicator: TA98, Metabolic Activation: RAT, LIVER, S-9, PCB (5%), Method: PREINCUBATION) “active; positive”; (Test System: AMES SALMONELLA TYPHIMURIUM, Strain/Indicator: TA98, Metabolic Activation: RAT, LIVER, S-9, PCB, Method: SUSPENSION) “active; positive”; under setting [2], “inactive; negative”; (Test System: AMES SALMONELLA TYPHIMURIUM, Strain/Indicator: TA100, Metabolic Activation: NONE, Method: SUSPENSION) “inactive; negative”; (Test System: AMES SALMONELLA TYPHIMURIUM, Strain/Indicator: TA100, Metabolic Activation: RAT, LIVER, S-9, PCB (5%), Method: PREINCUBATION) “inactive; negative”; (Test System: AMES SALMONELLA TYPHIMURIUM, Strain/Indicator: TA100, Metabolic Activation: RAT, LIVER, S-9, PCB, Method: SUSPENSION) “inactive; negative”.
For the compound `CN`, the mutagenic call runs as follows: (Test System: AMES SALMONELLA TYPHIMURIUM, Strain/Indicator: TA98, Metabolic Activation: NONE, Method: GAS EXPOSURE) “inactive; negative”; under setting [1], “inactive; negative”; (Test System: AMES SALMONELLA TYPHIMURIUM, Strain/Indicator: TA98, Metabolic Activation: RAT, LIVER, S-9, AROCLOR 1254 (5,15 OR 30%), Method: PREINCUBATION) “inactive; negative”; (Test System: AMES SALMONELLA TYPHIMURIUM, Strain/Indicator: TA98, Metabolic Activation: RAT, LIVER, S-9, SODIUM PHENOBARBITAL AND 5,6-BENZOFLAVONE, Method: GAS EXPOSURE) “inactive; negative”; (Test System: AMES SALMONELLA TYPHIMURIUM, Strain/Indicator: TA100, Metabolic Activation: NONE, Method: GAS EXPOSURE) “inactive; negative”; under setting [2], “inactive; negative”. Also, the mutagenic call is, setting by setting: (Test System: AMES SALMONELLA TYPHIMURIUM, Strain/Indicator: TA100, Metabolic Activation: RAT, LIVER, S-9, AROCLOR 1254 (5,15 OR 30%), Method: PREINCUBATION) “inactive; negative”; (Test System: AMES SALMONELLA TYPHIMURIUM, Strain/Indicator: TA100, Metabolic Activation: RAT, LIVER, S-9, SODIUM PHENOBARBITAL AND 5,6-BENZOFLAVONE, Method: GAS EXPOSURE) “inactive; negative”; (Test System: AMES SALMONELLA TYPHIMURIUM, Strain/Indicator: TA104, Metabolic Activation: NONE, Method: PREINCUBATION) “inactive; negative”; (Test System: AMES SALMONELLA TYPHIMURIUM, Strain/Indicator: TA104, Metabolic Activation: RAT, LIVER, S-9, AROCLOR 1254 (5,15 OR 30%), Method: PREINCUBATION) “inactive; negative”; (Test System: AMES SALMONELLA TYPHIMURIUM, Strain/Indicator: TA1535, Metabolic Activation: NONE, Method: GAS EXPOSURE) “inactive; negative”; (Test System: AMES SALMONELLA TYPHIMURIUM, Strain/Indicator: TA1535, Metabolic Activation: RAT, LIVER, S-9, SODIUM PHENOBARBITAL AND 5,6-BENZOFLAVONE, Method: GAS EXPOSURE) “inactive; negative”. The mutagenic call (Test System: AMES SALMONELLA TYPHIMURIUM, Strain/Indicator: TA1537, Metabolic Activation: NONE, Method: GAS EXPOSURE) was “inactive; negative”; the mutagenic call (Test System: AMES SALMONELLA TYPHIMURIUM, Strain/Indicator: TA1537, Metabolic Activation: RAT, LIVER, S-9, SODIUM PHENOBARBITAL AND 5,6-BENZOFLAVONE, Method: GAS EXPOSURE) is “inactive; negative”; the mutagenic call (Test System: E. COLI, Strain/Indicator: WP2UVRA, Metabolic Activation: NONE, Method: GAS EXPOSURE) was “inactive; negative”; the mutagenic call (Test System: E. COLI, Strain/Indicator: WP2UVRA, Metabolic Activation: RAT, LIVER, S-9, SODIUM PHENOBARBITAL AND 5,6-BENZOFLAVONE, Method: GAS EXPOSURE) is “inactive; negative”; the mutagenic call under setting [3] is “active; positive”.
`O=C(Nc1ccc(F)cc1)c1csc([N+](=O)[O-])c1`: the mutagenic call is, setting by setting: (Test System: AMES SALMONELLA TYPHIMURIUM, Strain/Indicator: TA98, Metabolic Activation: NONE, Method: STANDARD PLATE) “active; positive”; (Test System: AMES SALMONELLA TYPHIMURIUM, Strain/Indicator: TA100, Metabolic Activation: NONE, Method: STANDARD PLATE) “active; positive”.
In the case of `Nc1nc(-c2ccccc2)c(Br)c(=O)[nH]1`, the mutagenic call reads like this: (Test System: CHINESE HAMSTER OVARY, Strain/Indicator: CHO (HGPRT), Metabolic Activation: RAT, LIVER, S-9, AROCLOR 1254) “active; positive”; under setting [3], “inactive; negative”; (Test System: MOUSE LYMPHOMA, Strain/Indicator: L5178Y (TK+/TK-), Metabolic Activation: RAT, LIVER, S-9, AROCLOR 1254, Method: SUSPENSION/PLATE) “inactive; negative”.
Take `CN(N=O)C(=O)Nc1ccc(F)cc1`: for the setting “End Point: IN VITRO CHROMOSOMAL ABERRATIONS, Test System: CHINESE HAMSTER V79-E CELLS, Metabolic Activation: NONE”, the mutagenic call was “active; weakly positive”.
In the case of `c1ccc2c(c1)cc1ccc3cccc4ncc2c1c34`, the mutagenic call was “active; positive” (Test System: AMES SALMONELLA TYPHIMURIUM, Strain/Indicator: TA98, Metabolic Activation: RAT, LIVER, S-9, AROCLOR 1254, Method: STANDARD PLATE) and “active; positive” (Test System: AMES SALMONELLA TYPHIMURIUM, Strain/Indicator: TA100, Metabolic Activation: RAT, LIVER, S-9, AROCLOR 1254, Method: STANDARD PLATE).
In the case of `Cc1cn(/C=C/C=O)c(=O)[nH]c1=O`, the mutagenic call (Test System: AMES SALMONELLA TYPHIMURIUM, Strain/Indicator: HISD3052, Metabolic Activation: NONE, Method: STANDARD PLATE) is “active; positive”.
